Measurements from patent US5543429A, “Antifungal agents” (Merck & Co., Inc., priority 1995, dated 1996).
In brackets after ≈: the same amount, converted by molar mass.

Experiments:
[1] = tested on: Cryptococcus neoformans MY2062; experiment: broth microdilution assay (MIC/MFC); conditions: MY2062, 48 h; for MIC: read-out: Minimum Inhibitory Concentration (MIC); for MFC: read-out: Minimum Fungicidal Concentration (MFC)
[2] = tested on: Saccharomyces cerevisiae MY2140; experiment: broth microdilution assay (MIC/MFC); conditions: for MIC: MY2140, 24 h, read-out: Minimum Inhibitory Concentration (MIC); for MFC: MY2140, read-out: Minimum Fungicidal Concentration (MFC)
[3] = tested on: Saccharomyces cerevisiae MY2141; experiment: broth microdilution assay (MIC/MFC); conditions: for MIC: MY2141, 24 h, read-out: Minimum Inhibitory Concentration (MIC); for MFC: MY2141, read-out: Minimum Fungicidal Concentration (MFC)
[4] = tested on: Candida parapsilosis MY1010; experiment: broth microdilution assay (MIC/MFC); conditions: Lodderomyces parapsilosis; for MIC: MY1010, 24 h, read-out: Minimum Inhibitory Concentration (MIC); for MFC: MY1010, read-out: Minimum Fungicidal Concentration (MFC)
[5] = tested on: Aspergillus fumigatus MY4839; experiment: broth microdilution assay (MIC/MFC); conditions: MY4839, 24 h, read-out: Minimum Inhibitory Concentration (MIC)
Candida albicans CA2 = experiment: broth microdilution assay (MIC/MFC); conditions: for MIC: CA2, 24 h, read-out: Minimum Inhibitory Concentration (MIC); for MFC: CA2, read-out: Minimum Fungicidal Concentration (MFC)
[6] = tested on: Aspergillus fumigatus MY5668; experiment: broth microdilution assay (MIC/MFC); conditions: MY5668, 24 h, read-out: Minimum Inhibitory Concentration (MIC)
Candida albicans CLY539 = experiment: broth microdilution assay (MIC/MFC); conditions: for MIC: CLY539, 24 h, read-out: Minimum Inhibitory Concentration (MIC); for MFC: CLY539, read-out: Minimum Fungicidal Concentration (MFC)
[7] = tested on: Candida pseudotropicalis MY2099; experiment: broth microdilution assay (MIC/MFC); conditions: Kluyveromyces marxianus; for MIC: MY2099, 24 h, read-out: Minimum Inhibitory Concentration (MIC); for MFC: MY2099, read-out: Minimum Fungicidal Concentration (MFC)
Candida albicans MY1055 = experiment: broth microdilution assay (MIC/MFC); conditions: for MIC: MY1055, 24 h, read-out: Minimum Inhibitory Concentration (MIC); for MFC: MY1055, read-out: Minimum Fungicidal Concentration (MFC)
[8] = tested on: Candida guillermondii MY1019; experiment: broth microdilution assay (MIC/MFC); conditions: for MIC: MY1019, 24 h, read-out: Minimum Inhibitory Concentration (MIC); for MFC: MY1019, read-out: Minimum Fungicidal Concentration (MFC)
[9] = tested on: Candida tropicalis MY1012; experiment: broth microdilution assay (MIC/MFC); conditions: for MIC: MY1012, 24 h, read-out: Minimum Inhibitory Concentration (MIC); for MFC: MY1012, read-out: Minimum Fungicidal Concentration (MFC)
[10] = tested on: Candida tropicalis MY1124; experiment: broth microdilution assay (MIC/MFC); conditions: for MIC: MY1124, 24 h, read-out: Minimum Inhibitory Concentration (MIC); for MFC: MY1124, read-out: Minimum Fungicidal Concentration (MFC)
Candida glabrata MY1381 = experiment: broth microdilution assay (MIC/MFC); conditions: Nakaseomyces glabratus; for MIC: MY1381, 24 h, read-out: Minimum Inhibitory Concentration (MIC); for MFC: MY1381, read-out: Minimum Fungicidal Concentration (MFC)
Puccinia recondita = experiment: in vivo protectant assay, wheat leaf rust on wheat; conditions: P. recondita, scaled up, high spray volume assay, 100 ppm
Plasmopara viticola = experiment: in vivo protectant assay, downy mildew on grape; conditions: P. viticola
[11] = tested on: Aspergillus flavus, Fusarium oxysporum, Ustilago zeae and the like; experiment: agar plate inhibition zone test with filamentous fungi; assay type: cell-based; conditions: agar plates, 28°C or 37°C, 24 hours
Phytophthora infestans = assay type: in vivo; conditions: P. infestans, miniature plant assay
Septoria nodorum = experiment: in vivo protectant assay, glume blotch on wheat; conditions: S. nodorum, scaled up, high spray volume assay, 100 ppm
[12] = tested on: Cryptococcus neoformans MY2061; experiment: broth microdilution assay (MIC/MFC); conditions: MY2061, 48 h; for MFC: read-out: Minimum Fungicidal Concentration (MFC); for MIC: read-out: Minimum Inhibitory Concentration (MIC)
panel of seven pathogens = experiment: in vivo protectant assay, panel of seven phytopathogens
Alternaria solani = experiment: in vivo protectant assay, early blight on tomato; conditions: A. solani, miniature plant assay
Botrytis cinerea = experiment: in vivo protectant assay, grey mold on pepper; conditions: B. cinerea
[13] = scaled up, high spray volume assay, 100 ppm

SMILES | MIC [1] | MIC [2] | MFC [2] | MIC [3] | MFC [3] | MIC [4] | MFC [4] | MIC [5] | MIC (Candida albicans CA2) | MFC (Candida albicans CA2) | MIC [6] | MIC (Candida albicans CLY539) | MFC (Candida albicans CLY539) | MIC [7] | MFC [7] | MIC (Candida albicans MY1055) | MFC (Candida albicans MY1055) | MIC [8] | MFC [8] | MIC [9] | other results
C[C@@H]1[C@H](O)[C@@H](C)/C=C/C=C/C=C/C=C/C=C/C=C/C=C/[C@H](O[C@@H]2O[C@H](C)[C@@H](O)[C@H](N)[C@@H]2O)C[C@@H]2O[C@](O)(C[C@@H](O)C[C@@H](O)[C@H](O)CC[C@@H](O)C[C@@H](O)CC(=O)O[C@H]1C)C[C@H](O)[C@H]2C(=O)O [Amphotericin B, amphotericin B, reference compound] | 1 µg/mL (≈ 1.08 µM) | 1 µg/mL (≈ 1.08 µM) | 1 µg/mL (≈ 1.08 µM) | 1 µg/mL (≈ 1.08 µM) | 1 µg/mL (≈ 1.08 µM) | 1 µg/mL (≈ 1.08 µM) | 1 µg/mL (≈ 1.08 µM) | 2 µg/mL (≈ 2.16 µM) | 1 µg/mL (≈ 1.08 µM) | 1 µg/mL (≈ 1.08 µM) | 2 µg/mL (≈ 2.16 µM) | 1 µg/mL (≈ 1.08 µM) | 2 µg/mL (≈ 2.16 µM) | 2 µg/mL (≈ 2.16 µM) | 2 µg/mL (≈ 2.16 µM) | 1 µg/mL (≈ 1.08 µM) | 1 µg/mL (≈ 1.08 µM) | 1 µg/mL (≈ 1.08 µM) | 2 µg/mL (≈ 2.16 µM) | 16 µg/mL (≈ 17.3 µM) | MFC [9]: 16 µg/mL (≈ 17.3 µM); MIC [10]: 2 µg/mL (≈ 2.16 µM); MFC [10]: 2 µg/mL (≈ 2.16 µM); MIC (Candida glabrata MY1381): 2 µg/mL (≈ 2.16 µM); MFC (Candida glabrata MY1381): 2 µg/mL (≈ 2.16 µM)
C=CC1=CCC2C(CC3OC(=O)C4(C)C(O)CCC2(C)C34O)C1C (stereo not drawn) [Compound II] | 1 µg/mL (≈ 3.01 µM) | 1 µg/mL (≈ 3.01 µM) | 2 µg/mL (≈ 6.02 µM) | 0.5 µg/mL (≈ 1.5 µM) | 1 µg/mL (≈ 3.01 µM) | 8 µg/mL (≈ 24.1 µM) | 8 µg/mL (≈ 24.1 µM) | 2 µg/mL (≈ 6.02 µM) | 32 µg/mL (≈ 96.3 µM) | 4 µg/mL (≈ 12 µM) | 1 µg/mL (≈ 3.01 µM) | 2 µg/mL (≈ 6.02 µM) | 2 µg/mL (≈ 6.02 µM) | 1 µg/mL (≈ 3.01 µM) | 2 µg/mL (≈ 6.02 µM) | 2 µg/mL (≈ 6.02 µM) | 4 µg/mL (≈ 12 µM) | 8 µg/mL (≈ 24.1 µM) | 16 µg/mL (≈ 48.1 µM) | 2 µg/mL (≈ 6.02 µM) | MFC [1]: 1 µg/mL (≈ 3.01 µM); percent control of disease (Puccinia recondita): 100%; percent control of disease (Plasmopara viticola; miniature plant assay): 80-95%; percent control of disease (Plasmopara viticola; protectant assay, 11 ppm): 50-85%; percent control of disease (Plasmopara viticola; [13]): 100%; inhibition of growth of filamentous fungi [11]: effectively inhibit growth of the fungal organisms; percent control of disease (Phytophthora infestans): 80-95%; percent control of disease (Septoria nodorum): 60%; MFC [9]: 2 µg/mL (≈ 6.02 µM); MIC [10]: 4 µg/mL (≈ 12 µM); MFC [10]: 8 µg/mL (≈ 24.1 µM); MFC [12]: 1 µg/mL (≈ 3.01 µM); MIC [12]: 2 µg/mL (≈ 6.02 µM); control of phytopathogens (panel of seven pathogens): very efficacious at controlling six of the phytopathogens; MIC (Candida glabrata MY1381): 4 µg/mL (≈ 12 µM); MFC (Candida glabrata MY1381): 4 µg/mL (≈ 12 µM); percent control of disease (Alternaria solani): 80-95%; percent control of disease (Botrytis cinerea; miniature plant assay): 80-95%; percent control of disease (Botrytis cinerea; protectant assay, 11 ppm): 50-85%; percent control of disease (Botrytis cinerea; [13]): 100%
C=CC1C(=C)CCC2C1CC1OC(=O)C3(C)C(O)CCC2(C)C13O (stereo not drawn) [Compound I] | 0.25 µg/mL (≈ 0.752 µM) | 2 µg/mL (≈ 6.02 µM) | 8 µg/mL (≈ 24.1 µM) | 1 µg/mL (≈ 3.01 µM) | 8 µg/mL (≈ 24.1 µM) | 8 µg/mL (≈ 24.1 µM) | 32 µg/mL (≈ 96.3 µM) | 4 µg/mL (≈ 12 µM) | 8 µg/mL (≈ 24.1 µM) | 8 µg/mL (≈ 24.1 µM) | 8 µg/mL (≈ 24.1 µM) | 4 µg/mL (≈ 12 µM) | 2 µg/mL (≈ 6.02 µM) | 4 µg/mL (≈ 12 µM) | 4 µg/mL (≈ 12 µM) | 2 µg/mL (≈ 6.02 µM) | 4 µg/mL (≈ 12 µM) | 8 µg/mL (≈ 24.1 µM) | 16 µg/mL (≈ 48.1 µM) | 2 µg/mL (≈ 6.02 µM) | MFC [1]: 0.25 µg/mL (≈ 0.752 µM); percent control of disease (Plasmopara viticola; 200 ppm): up to 80%; inhibition of growth of filamentous fungi [11]: effectively inhibit growth of the fungal organisms; MFC [9]: 2 µg/mL (≈ 6.02 µM); MIC [10]: 8 µg/mL (≈ 24.1 µM); MFC [10]: 16 µg/mL (≈ 48.1 µM); MFC [12]: 0.25 µg/mL (≈ 0.752 µM); MIC [12]: 0.5 µg/mL (≈ 1.5 µM); MIC (Candida glabrata MY1381): 8 µg/mL (≈ 24.1 µM); MFC (Candida glabrata MY1381): 8 µg/mL (≈ 24.1 µM); percent control of disease (Botrytis cinerea; 200 ppm): up to 80%
